According to ChEMBL document CHEMBL1122146, “Conformation-activity study of methadone and related compounds” (J Med Chem, 1982):

Molecular target: Mu-type opioid receptor (Cavia porcellus) (UniProt P97266)
Test: Evaluated for analgesic activity as effective dose
Type: functional

Mu-type opioid receptor (Cavia porcellus), sequence (P97266 whole entry): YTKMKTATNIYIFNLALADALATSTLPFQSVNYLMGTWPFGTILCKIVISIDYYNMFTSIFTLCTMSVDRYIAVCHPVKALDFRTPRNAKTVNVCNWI

Row | Structure (SMILES) | ED50 [mg/kg]
1 | CC[C@H](O)C(C[C@H](C)N(C)C)(c1ccccc1)c1ccccc1 | 3.5
2 | CCC(=O)C(CC(C)N(C)C)(c1ccccc1)c1ccccc1 (stereo in doubt; erythro) | 0.4
3 | CCC(O)C(C[C@@H](C)NC)(c1ccccc1)c1ccccc1 (some centres not stated) | 17.7
4 | CC[C@@H](O)C(c1ccccc1)(c1ccccc1)[C@H](C)CN(C)C | 91.7
5 | CC[C@@H](O)C(C[C@@H](C)N(C)C)(c1ccccc1)c1ccccc1 | 24.7
6 | CC[C@H](O)C(c1ccccc1)(c1ccccc1)[C@H](C)CN(C)C | 6.2
7 | CCC(=O)C(C[C@H](C)N(C)C)(c1ccccc1)c1ccccc1 | 25.7
8 | CCC(=O)C(CC(C)N(C)C)(c1ccccc1)c1ccccc1 (stereo in doubt; threo) | > 50
9 | CC[C@H](O)C(C[C@@H](C)N(C)C)(c1ccccc1)c1ccccc1 | 7.6
10 | CCC(=O)C(c1ccccc1)(c1ccccc1)[C@H](C)CN(C)C | 1.2
11 | CC[C@@H](O)C(C[C@H](C)N(C)C)(c1ccccc1)c1ccccc1 | 63.7
12 | CC[C@@H](O)C(c1ccccc1)(c1ccccc1)[C@@H](C)CN(C)C | 58.7
13 | CCC(=O)C(c1ccccc1)(c1ccccc1)[C@@H](C)CN(C)C | 49.8
14 | CC[C@H](O)C(c1ccccc1)(c1ccccc1)[C@@H](C)CN(C)C | 60.7
15 | CCC(O)C(C[C@H](C)NC)(c1ccccc1)c1ccccc1 (some centres not stated) | 10.3
16 | CCC(=O)C(C[C@@H](C)N(C)C)(c1ccccc1)c1ccccc1 | 0.8
17 | CCC(=O)C(CCN(C)C)(c1ccccc1)c1ccccc1 | 2.5
